Test results taken from US10364222B2, “Cyclic amine derivative and medical use thereof” (Toray Industries, Inc., priority 2016, dated 2019).

What was measured:
[1] = biological target: T1, ligand-binding domain of RORγ (RORγ-LBD) (Homo sapiens, UniProt P51449); assay: Inhibitory effect on RORγ-coactivator binding (LanthaScreen TR-FRET RORγ Coactivator Assay); conditions: at 33 μmol/L of the test compound; read-out: RORγ-coactivator binding inhibition rate (%)
T1 construct: purchased Invitrogen
T1 sequence (P51449 269-508 limits assumed): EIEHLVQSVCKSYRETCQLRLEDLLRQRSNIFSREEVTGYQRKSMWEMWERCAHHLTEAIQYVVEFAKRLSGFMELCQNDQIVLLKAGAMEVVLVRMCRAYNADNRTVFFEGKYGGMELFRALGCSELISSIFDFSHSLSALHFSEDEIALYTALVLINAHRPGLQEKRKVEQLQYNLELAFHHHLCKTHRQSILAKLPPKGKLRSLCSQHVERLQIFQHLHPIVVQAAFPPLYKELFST
Method in brief: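 TR-FRET: 4 nmol/L GST-RORγ-LBD with compound (1% DMSO) in Coregulator Buffer D plus 5 mmol/L DTT, then 150 nmol/L fluorescein-TRAP220/DRIP-2 and 32 nmol/L Tb-anti-GST antibody; 16–24 hours at room temperature. 520/495 nm ratio (320 nm excitation), background-corrected against control, gives % inhibition of coactivator binding.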

[2] = test system: mouse experimental autoimmune encephalomyelitis model; assay: Mouse experimental autoimmune encephalomyelitis model; assay type: in vivo; conditions: C57BL/6J mice, vs vehicle
Description: Using increase in the neurological symptom score as an index of exacerbation of symptoms, the effect of the cyclic amine derivative (I) or a pharmacologically acceptable salt thereof in a mouse experimental autoimmune encephalomyelitis model was evaluated. The mouse experimental autoimmune encephalomyelitis model was prepared by a partially modified method by Hindinger et al. (Journal of Neuroscience Research, 2006, Vol. 84, p. 1225-1234).
A total of 0.1 mL (0.05 mL on each side) of an MOG35-55 administration solution prepared by mixing a PBS solution containing partial synthetic peptides of myelin oligodendrocyte glycoproteins (MOG35-55; CSBio, Inc.) prepared to a concentration of 4 mg/mL with Freund's complete adjuvant at equal amount was intradermally inoculated to both flank sides of C57BL/6J mice (male, 8 weeks old) (Charles River Laboratories Japan, Inc.). Furthermore, 200 μL of pertussis toxin (Sigma-Aldrich Japan) prepared to a concentration of 1 μg/mL was intraperitoneally administered to the mice on the day of inoculation and 2 days after inoculation of the MOG35-55 administration solution.
After inoculation of the MOG35-55 administration solution, the test compound was administered to the mice. As the test compound, the compound of Example 20, the compound of Example 29, and the compound of Example 57 were used. The compound of Example 20 was suspended in a 0.5 w/v % methylcellulose solution and orally administered once daily at a dose of 3 mg/kg every day from 2 days after inoculation of the MOG35-55 administration solution. […]
After inoculation of the MOG35-55 administration solution, the neurological symptom scores in the groups in which test compound was administered and the corresponding vehicle administration groups were scored (0: normal, 1: limp tail or hind limb weakness, 2: limp tail and hind limb weakness, 3: partial hind limb paralysis, 4: complete hind limb paralysis, 5: moribund state). […]

| inhibition at 33 µM [1] [%] | Structure (SMILES) | increase in the neurological symptom score ([2]; 3 mg/kg orally once daily from 2 days after MOG35-55 inoculation, score on the 13th day, Wilcoxon test P<0.05 (FIG. 1)) | increase in the neurological symptom score ([2]; 1 mg/kg orally once daily from 13 days after MOG35-55 inoculation, score on the 23rd day, Wilcoxon test P<0.05 (FIG. 2)) | increase in the neurological symptom score ([2]; 1 mg/kg orally once daily from 13 days after MOG35-55 inoculation, score on the 30th day, Wilcoxon test P<0.05 (FIG. 3)) |
| --- | --- | --- | --- | --- |
| 101 | CC(=O)N1CCCC[C@@H]1C(=O)Nc1ccc(-c2ccccc2OC(F)(F)F)c(Cl)c1 [Example 20, (R)-1-acetyl-N-(2-chloro-2′-(trifluoromethoxy)-[1,1′-biphenyl]-4-yl)piperidine-2-carboxamide] | statistically significantly suppressed |  |  |
| 101 | CN(CC(=O)N1CCCC[C@@H]1C(=O)Nc1ccc(-c2ccccc2OC(F)(F)F)c(Cl)c1)S(C)(=O)=O [Example 29, (R)-N-(2-chloro-2′-(trifluoromethoxy)-[1,1′-biphenyl]-4-yl)-1-(2-(N-methylmethylsulfonamide)acetyl)piperidine-2-carboxamide] |  | statistically significantly suppressed |  |
| 103 | O=C(Nc1ccc(-c2ccccc2OC(F)(F)F)c(Cl)c1)[C@H]1CCCCN1C(=O)Cn1cnnn1 [Example 57, (R)-1-(2-(1H-tetrazol-1-yl)acetyl)-N-(2-chloro-2′-(trifluoromethoxy)-[1,1′-biphenyl]-4-yl)piperidine-2-carboxamide] |  |  | statistically significantly suppressed |
